{"source": "ChEMBL document CHEMBL3228008", "about": "“Synthesis and some pharmacological properties of 8-L-methionine-oxytocin” (1979)", "key": {"[1]": {"assay": "Oxytocic activity in virgin rat uterine horns", "assay_type": "functional"}, "Gallus gallus": {"test_system": "Gallus gallus", "assay": "Avian vasodepressor activity in conscious chicken", "assay_type": "functional"}, "Rattus norvegicus [2]": {"test_system": "Rattus norvegicus", "assay": "Pressor activity in anesthetized rat", "assay_type": "functional"}, "Rattus norvegicus [3]": {"test_system": "Rattus norvegicus", "assay": "Antidiuretic activity in anesthetized rat", "assay_type": "functional, Urine"}}, "note": "Where a SMILES comes first, the peptide text is derived from it. Bridges are numbered along the chain shown (N, C = ends).", "data": [{"smiles": "CC[C@H](C)[C@@H]1NC(=O)[C@H](Cc2ccc(O)cc2)NC(=O)[C@@H](N)CSSC[C@@H](C(=O)N2CCC[C@H]2C(=O)N[C@@H](CCSC)C(=O)NCC(N)=O)NC(=O)[C@H](CC(N)=O)NC(=O)[C@H](CCC(N)=O)NC1=O", "note": "(H-CYIQNCPMG-NH2; disulfide 1-6)", "values": [{"measurement": "Activity", "setting": "[1]", "result": 200, "unit": "U/mg"}, {"measurement": "Activity", "setting": "Gallus gallus", "result": 193, "unit": "U/mg"}, {"measurement": "Activity", "setting": "Rattus norvegicus [2]", "result": 27, "unit": "U/mg"}, {"measurement": "Activity", "setting": "Rattus norvegicus [3]", "result": 0.4, "unit": "U/mg"}]}]}
